These are literature values, as cited in patent publication EP4106725B1, “WATER-SOLUBLE SOLID DISPERSION OF QUERCETIN, FORMS THEREOF, A METHOD OF OBTAINING THEREOF, USE OF ALKALINE AGENT, AND A KIT” ("Scientific Industrial Centre "Borshchahivskiy Chemical …, priority 2020, dated 2021).

Molecules are shown by their SMILES.

The conditions of data set [1]: crystalline dehydrated state and dihydrate.

Regarding `O=c1c(O)c(-c2ccc(O)c(O)c2)oc2cc(O)cc(O)c12` [quercetin, 2-(3,4-dihydroxyphenyl)-3,5,7-trihydroxy-4H-chromen-4-one], the solubility in water in data set [1] is given as ~ 1 mg/100 mL. For the same compound, the “acidity constant value pKa1” value (hydroxylic group in 4'-position) is 6.62 ± 0.04. For the same compound, the “acidity constant value pKa2” value (hydroxylic group in 7-position) is 9.7 ± 0.3.
On to `O=C([O-])[O-].[Na+].[Na+]` [Na2CO3, sodium carbonate], for which the pKa (acidity constant of the alkaline agent) was 10.33.

The term pKa denotes the pH at which an ionisable group is half protonated.
